The target of data set [1] is T1, 5-hydroxytryptamine receptor 2B (Homo sapiens, UniProt P41595). Description: Displacement of [3H]-LSD from human 5-HT2B receptor assessed as inhibition constant. (Loss of bound radioactivity is the signal in a displacement assay; it reports binding, not function.)
The target in data set [2] is T1, 5-hydroxytryptamine receptor 2B. The data set can be described thus: Agonist activity at 5-HT2B receptor (unknown origin) assessed as stimulation of phospho-inositide hydrolysis by IP hydrolysis assay. The class given is functional.
Data set [3] shares this target. The data set can be described thus: Agonist activity at 5-HT2B receptor (unknown origin) assessed as stimulation of intracellular calcium level by calcium mobilization assay. The class given is functional, cell-based. Background: Calcium flux is commonly read through the fluorescence of an indicator in the cells.
Data set [4] shares this target. The data set can be described thus: Agonist activity at 5-HT2B receptor (unknown origin) assessed as stimulation of […] by calcium mobilization assay. The class given is functional.
Data set [5] deals with T2, Cytochrome P450 1A2 (Homo sapiens, UniProt P05177).
T2 sequence (P05177 whole entry): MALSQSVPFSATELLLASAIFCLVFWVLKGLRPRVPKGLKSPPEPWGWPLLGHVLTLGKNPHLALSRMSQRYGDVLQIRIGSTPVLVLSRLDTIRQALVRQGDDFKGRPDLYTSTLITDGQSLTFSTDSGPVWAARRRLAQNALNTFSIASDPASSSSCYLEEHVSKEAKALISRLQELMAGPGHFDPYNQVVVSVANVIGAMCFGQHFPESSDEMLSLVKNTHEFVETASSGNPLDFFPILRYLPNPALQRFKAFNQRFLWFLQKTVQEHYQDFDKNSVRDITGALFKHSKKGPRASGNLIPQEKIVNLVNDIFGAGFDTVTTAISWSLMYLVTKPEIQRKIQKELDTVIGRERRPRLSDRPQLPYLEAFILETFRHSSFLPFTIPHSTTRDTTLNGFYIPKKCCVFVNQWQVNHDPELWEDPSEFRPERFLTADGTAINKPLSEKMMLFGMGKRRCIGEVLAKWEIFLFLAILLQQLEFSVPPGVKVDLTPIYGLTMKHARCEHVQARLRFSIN
The data set can be described thus: Inhibition of CYP1A2 (unknown origin). The class given is ADME.

The target in data set [6] is Cytochrome P450 2C9 (Homo sapiens, UniProt P11712). The data set can be described thus: Inhibition of CYP2C9 (unknown origin). The class given is ADME.
The target in data set [7] is Cytochrome P450 2D6 (Homo sapiens, UniProt P10635). Description: Inhibition of CYP2D6 (unknown origin). It is filed as ADME.
The target in data set [8] is Cytochrome P450 3A4 (Homo sapiens, UniProt P08684). Description: Inhibition of CYP3A4 (unknown origin). It is filed as ADME.
Data set [9] can be described thus: Ratio of drug concentration in brain to plasma of C57BL/6 mouse administered intraperitoneally and measured for 0.25 to 24 hrs. The class given is ADME. As to conditions: time 0.25-24 hrs, route ip, read-out: BPR.
The nature of data set [10]: Half life in ip dosed C57BL/6 mouse. It is filed as ADME, organism-based. As to conditions: in vivo.
Data set [11] in a line: Cmax in ip dosed C57BL/6 mouse. It is filed as ADME, organism-based. More on the design: route ip. As to conditions: in vivo.
Data set [12] concerns the target T1, 5-hydroxytryptamine receptor 2B. The data set can be described thus: Binding affinity to 5-HT2B receptor (unknown origin).
Data set [13] is described as follows: Selectivity ratio, […] for 5-HT2B (unknown origin).

T1 sequence (P41595 whole entry): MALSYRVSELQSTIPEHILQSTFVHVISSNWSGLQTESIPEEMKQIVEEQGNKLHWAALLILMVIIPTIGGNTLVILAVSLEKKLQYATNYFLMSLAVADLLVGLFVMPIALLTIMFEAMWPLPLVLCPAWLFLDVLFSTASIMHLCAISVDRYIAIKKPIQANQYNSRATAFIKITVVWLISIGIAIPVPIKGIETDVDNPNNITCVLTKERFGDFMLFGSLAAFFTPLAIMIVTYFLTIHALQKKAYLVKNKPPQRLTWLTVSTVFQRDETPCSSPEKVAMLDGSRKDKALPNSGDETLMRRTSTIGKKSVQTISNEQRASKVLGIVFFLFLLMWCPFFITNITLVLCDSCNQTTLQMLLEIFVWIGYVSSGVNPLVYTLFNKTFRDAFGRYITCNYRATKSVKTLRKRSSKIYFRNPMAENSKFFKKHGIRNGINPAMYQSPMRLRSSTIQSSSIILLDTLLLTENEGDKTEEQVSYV
Cytochrome P450 2C9, sequence (P11712 whole entry): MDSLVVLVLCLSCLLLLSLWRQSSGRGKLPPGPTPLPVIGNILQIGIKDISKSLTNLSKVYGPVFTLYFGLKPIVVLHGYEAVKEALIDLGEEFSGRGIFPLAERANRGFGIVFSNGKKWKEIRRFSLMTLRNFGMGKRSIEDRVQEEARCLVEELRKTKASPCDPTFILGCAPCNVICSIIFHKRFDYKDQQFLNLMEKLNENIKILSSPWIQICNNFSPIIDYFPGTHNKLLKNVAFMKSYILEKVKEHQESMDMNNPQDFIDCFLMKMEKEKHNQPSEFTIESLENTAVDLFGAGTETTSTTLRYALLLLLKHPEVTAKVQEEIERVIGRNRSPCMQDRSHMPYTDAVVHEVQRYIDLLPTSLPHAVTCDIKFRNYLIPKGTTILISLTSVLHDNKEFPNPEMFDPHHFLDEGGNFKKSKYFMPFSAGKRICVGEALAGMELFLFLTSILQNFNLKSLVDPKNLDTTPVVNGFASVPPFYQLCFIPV
Cytochrome P450 2D6, sequence (P10635 whole entry): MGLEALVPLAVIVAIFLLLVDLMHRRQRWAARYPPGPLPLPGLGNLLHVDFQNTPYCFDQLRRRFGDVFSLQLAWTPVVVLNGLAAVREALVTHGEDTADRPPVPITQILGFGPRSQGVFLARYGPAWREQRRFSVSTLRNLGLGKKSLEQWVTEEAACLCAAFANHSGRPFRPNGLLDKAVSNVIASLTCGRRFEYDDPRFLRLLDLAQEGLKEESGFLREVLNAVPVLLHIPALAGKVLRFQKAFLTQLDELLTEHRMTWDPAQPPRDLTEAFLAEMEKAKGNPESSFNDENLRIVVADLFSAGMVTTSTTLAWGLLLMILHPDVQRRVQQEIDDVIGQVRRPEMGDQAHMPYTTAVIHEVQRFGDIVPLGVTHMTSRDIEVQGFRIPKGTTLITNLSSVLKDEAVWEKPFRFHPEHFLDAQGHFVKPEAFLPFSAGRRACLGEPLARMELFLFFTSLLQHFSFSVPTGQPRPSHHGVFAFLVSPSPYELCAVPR
Cytochrome P450 3A4, sequence (P08684 whole entry): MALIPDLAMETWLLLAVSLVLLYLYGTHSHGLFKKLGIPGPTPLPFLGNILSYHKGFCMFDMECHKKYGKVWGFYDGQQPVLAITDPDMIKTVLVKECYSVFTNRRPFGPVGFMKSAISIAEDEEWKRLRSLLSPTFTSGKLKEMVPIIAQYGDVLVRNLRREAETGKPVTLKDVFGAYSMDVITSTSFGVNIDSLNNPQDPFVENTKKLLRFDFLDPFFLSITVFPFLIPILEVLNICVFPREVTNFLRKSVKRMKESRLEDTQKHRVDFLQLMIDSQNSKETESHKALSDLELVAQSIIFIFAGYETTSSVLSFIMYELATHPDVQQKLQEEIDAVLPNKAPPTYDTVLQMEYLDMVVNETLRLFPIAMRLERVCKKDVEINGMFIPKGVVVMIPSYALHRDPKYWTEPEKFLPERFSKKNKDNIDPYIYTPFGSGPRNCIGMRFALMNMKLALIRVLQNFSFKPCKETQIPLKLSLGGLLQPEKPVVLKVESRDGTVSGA

As usually defined, the Ki is the equilibrium dissociation constant of an inhibitor or competing ligand from its target. Turning to `O=C1[C@@H]2[C@@H]3C[C@@H](C[C@H]3O)[C@@H]2C(=O)N1C[C@@H]1CCCC[C@H]1CN1CCN(c2nsc3ccccc23)CC1`, the Ki in data set [1] turned out to be 24 nM.

The EC50 is the concentration at which the effect is half-maximal. Regarding `C[C@H](N)Cc1cccc(C(F)(F)F)c1` [NORDEXFENFLURAMINE], the EC50 in [2], in data set [3] and in [4] was 23 nM in each case.

For orientation: IC50 means the midpoint of a concentration-inhibition curve. Read a low IC50 as greater potency. One may read the half-life as the time needed for the level to fall by half in the phase considered. The term Cmax denotes the peak of the concentration-time curve. Regarding `Cn1ccc2cc(-n3c(=O)[nH]c4sc5c(c4c3=O)CCCC5)ccc21`, the IC50 in data set [5], in data set [6], in data set [7] and in data set [8] was over 30000 nM throughout. Further, the Kp in data set [9] stood at 0.01. Further, in data set [10], the half-life was 42 min. This compound came in with a Cmax in data set [11] of 43000 ng/mL.

Take `Cc1cc(NC(=O)Nc2ccc3c(ccn3C)c2)sn1`: the Ki in data set [12] was 11.2 nM. The Selectivity ratio in data set [13] was over 135.

The values above are taken from ChEMBL document CHEMBL5360673, “2B Determined: The Future of the Serotonin Receptor 2B in Drug Discovery” (J Med Chem, 2023).
